The values that follow come from BindingDB's records for doi:10.1016/s0960-894x(01)00096-8 (Seoul National University, 2001).

The target in assay [1] is Isoleucine--tRNA ligase (Escherichia coli) (UniProt P00956). The assay can be described thus: Inhibitory concentration against isoleucyl-tRNA synthetase was determined by measuring decrease of the aminoacylation product [3H]- isoleucyl tRNA of Escherichia coli.
For assay [2], the target named is Methionine--tRNA ligase (Escherichia coli) (UniProt P00959). The assay can be described thus: Inhibitory concentration against methionyl-tRNA synthetase was determined by measuring decrease of the aminoacylation product [35S]- methionyl tRNA of Escherichia coli.
Sequence of Methionine--tRNA ligase (Escherichia coli) (P00959 whole entry, looked up): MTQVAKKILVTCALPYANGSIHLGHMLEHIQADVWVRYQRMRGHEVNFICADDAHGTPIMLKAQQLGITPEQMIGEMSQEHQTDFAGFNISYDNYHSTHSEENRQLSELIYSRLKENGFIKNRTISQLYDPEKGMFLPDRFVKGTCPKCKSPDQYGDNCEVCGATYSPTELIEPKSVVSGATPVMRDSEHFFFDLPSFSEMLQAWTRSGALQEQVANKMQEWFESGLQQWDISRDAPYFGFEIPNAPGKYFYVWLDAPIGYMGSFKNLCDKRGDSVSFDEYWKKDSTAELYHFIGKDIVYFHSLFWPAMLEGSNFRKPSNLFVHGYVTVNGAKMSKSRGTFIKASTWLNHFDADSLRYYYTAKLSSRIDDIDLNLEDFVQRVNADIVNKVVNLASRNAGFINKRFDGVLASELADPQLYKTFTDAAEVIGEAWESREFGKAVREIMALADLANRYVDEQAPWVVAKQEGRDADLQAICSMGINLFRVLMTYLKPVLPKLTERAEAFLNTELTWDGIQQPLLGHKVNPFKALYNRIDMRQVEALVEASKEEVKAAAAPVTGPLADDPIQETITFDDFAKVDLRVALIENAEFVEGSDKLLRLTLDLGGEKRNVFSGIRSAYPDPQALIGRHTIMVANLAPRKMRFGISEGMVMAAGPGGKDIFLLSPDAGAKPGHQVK
Assay [3] deals with Isoleucine--tRNA ligase (Escherichia coli) (UniProt P00956). The assay can be described thus: Inhibitory concentration against isoleucyl-tRNA synthetase was determined by measuring decrease of the aminoacylation product [3H]- isoleucyl tRNA of Escherichia coli. This is another data set of the same source.
Assay [4] can be described thus: Inhibitory concentration against methionyl-tRNA synthetase was determined by measuring decrease of the aminoacylation product [35S]- methionyl tRNA of Escherichia coli.

SMILES strings stand for the structures. pIC50: −log10 of the molar value.

Sequence of Isoleucine--tRNA ligase (Escherichia coli) (P00956 whole entry, looked up): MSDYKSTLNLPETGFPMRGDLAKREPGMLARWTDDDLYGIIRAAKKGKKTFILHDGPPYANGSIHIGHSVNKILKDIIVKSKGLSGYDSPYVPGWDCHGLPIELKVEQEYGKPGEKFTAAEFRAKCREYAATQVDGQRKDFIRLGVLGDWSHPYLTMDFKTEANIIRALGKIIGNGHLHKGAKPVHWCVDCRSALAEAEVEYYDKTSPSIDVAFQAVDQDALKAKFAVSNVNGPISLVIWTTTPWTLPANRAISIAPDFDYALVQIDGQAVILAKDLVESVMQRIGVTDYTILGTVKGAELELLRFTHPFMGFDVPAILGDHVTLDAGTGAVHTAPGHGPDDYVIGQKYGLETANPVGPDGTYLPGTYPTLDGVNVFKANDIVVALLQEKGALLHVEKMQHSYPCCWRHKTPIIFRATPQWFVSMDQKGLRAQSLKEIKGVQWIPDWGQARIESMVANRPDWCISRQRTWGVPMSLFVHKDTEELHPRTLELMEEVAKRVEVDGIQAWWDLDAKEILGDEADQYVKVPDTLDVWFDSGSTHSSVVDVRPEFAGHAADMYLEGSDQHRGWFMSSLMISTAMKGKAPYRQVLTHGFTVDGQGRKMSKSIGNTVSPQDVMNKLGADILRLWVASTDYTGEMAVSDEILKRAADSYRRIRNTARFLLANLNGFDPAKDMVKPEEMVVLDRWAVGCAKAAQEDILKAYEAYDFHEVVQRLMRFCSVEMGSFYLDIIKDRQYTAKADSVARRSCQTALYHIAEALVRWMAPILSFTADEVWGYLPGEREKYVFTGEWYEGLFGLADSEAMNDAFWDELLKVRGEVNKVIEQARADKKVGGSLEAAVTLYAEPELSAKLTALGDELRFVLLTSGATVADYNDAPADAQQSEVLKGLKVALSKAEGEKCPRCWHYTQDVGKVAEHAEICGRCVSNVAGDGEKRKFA

Broadly, the pIC50 is the IC50 on a negative log10 scale, so that one unit is a factor of ten. Low readings indicate a high IC50, high ones a low IC50. `CCC(C)[C@H](N)C(=O)OCCN(O)C(=O)Cc1ccc(OC)c(O)c1` (stereo partly drawn) [(S)-1-(2-{Hydroxy-[2-(3-hydroxy-4-methoxy-phenyl)-acetyl]-amino}-ethoxycarbonyl)-2-methyl-butyl-ammonium]: the negative logarithm of the IC50 (pIC50) in assay [1] was 4.68.
Compound `COc1ccc(CC(=O)N(O)CCOC(=O)[C@@H](N)CCSC)cc1O` [(S)-1-(2-{Hydroxy-[2-(3-hydroxy-4-methoxy-phenyl)-acetyl]-amino}-ethoxycarbonyl)-3-methylsulfanyl-propyl-ammonium] showed a pIC50 in assay [2] of 4.06.
The compound `CCC(C)[C@H](N)C(=O)OCCN(O)C(=O)Cc1ccc(O)c(OC)c1` (stereo partly drawn) [(S)-1-(2-{Hydroxy-[2-(4-hydroxy-3-methoxy-phenyl)-acetyl]-amino}-ethoxycarbonyl)-2-methyl-butyl-ammonium] had a pIC50 in assay [1] of 3.64.
In the case of `COc1cc(CC(=O)N(O)CCOC(=O)[C@@H](N)CCSC)ccc1O` [(S)-1-(2-{Hydroxy-[2-(4-hydroxy-3-methoxy-phenyl)-acetyl]-amino}-ethoxycarbonyl)-3-methylsulfanyl-propyl-ammonium], in assay [2], the pIC50 was 3.89.
For the compound `CCC(C)[C@H](N)C(=O)OCCNC(=O)c1ccc(OC)c(O)c1` (stereo partly drawn) [(S)-1-[2-(3-Hydroxy-4-methoxy-benzoylamino)-ethoxycarbonyl]-2-methyl-butyl-ammonium], the pIC50 in assay [1] is 3.97.
The compound `COc1ccc(C(=O)NCCOC(=O)[C@@H](N)CCSC)cc1O` [(S)-1-[2-(3-Hydroxy-4-methoxy-benzoylamino)-ethoxycarbonyl]-3-methylsulfanyl-propyl-ammonium] gave a negative logarithm of the IC50 (pIC50) in assay [2] of 4.11.
`CCC(C)[C@H](N)C(=O)OCCNC(=O)c1ccc(O)c(OC)c1` (stereo partly drawn) [(S)-1-[2-(4-Hydroxy-3-methoxy-benzoylamino)-ethoxycarbonyl]-2-methyl-butyl-ammonium] showed a pIC50 in assay [1] of 4.19.
`COc1cc(C(=O)NCCOC(=O)[C@@H](N)CCSC)ccc1O` [(S)-1-[2-(4-Hydroxy-3-methoxy-benzoylamino)-ethoxycarbonyl]-3-methylsulfanyl-propyl-ammonium]: the pIC50 in assay [2] is 4.22.
Compound `CCC(C)[C@H](N)C(=O)OCC1CC(c2ccc(OC)c(O)c2)=NO1` (stereo partly drawn) [(S)-1-[3-(3-Hydroxy-4-methoxy-phenyl)-4,5-dihydro-isoxazol-5-ylmethoxycarbonyl]-2-methyl-butyl-ammonium] showed a negative-log IC50 (pIC50) in assay [1] of 4.24.
Consider `COc1ccc(C2=NOC(COC(=O)[C@@H](N)CCSC)C2)cc1O` (stereo partly drawn) [(S)-1-[3-(3-Hydroxy-4-methoxy-phenyl)-4,5-dihydro-isoxazol-5-ylmethoxycarbonyl]-3-methylsulfanyl-propyl-ammonium], for which the pIC50 in assay [2] was 4.33.
In assay [1], `CCC(C)[C@H](N)C(=O)OCC1CC(c2ccc(O)c(OC)c2)=NO1` (stereo partly drawn) [(S)-1-[3-(4-Hydroxy-3-methoxy-phenyl)-4,5-dihydro-isoxazol-5-ylmethoxycarbonyl]-2-methyl-butyl-ammonium] had a pIC50 of 4.10.
Take `COc1cc(C2=NOC(COC(=O)[C@@H](N)CCSC)C2)ccc1O` (stereo partly drawn) [(S)-1-[3-(4-Hydroxy-3-methoxy-phenyl)-4,5-dihydro-isoxazol-5-ylmethoxycarbonyl]-3-methylsulfanyl-propyl-ammonium]: the pIC50 in assay [2] was 4.24.
In assay [3], `CCC(C)[C@H](N)C(=O)OC[C@H]1COC(c2ccc(O)c(OC)c2)=N1` (stereo partly drawn) [(S)-1-[(R)-2-(4-Hydroxy-3-methoxy-phenyl)-4,5-dihydro-oxazol-4-ylmethoxycarbonyl]-2-methyl-butyl-ammonium] had a pIC50 of 4.30.
In assay [4], `COc1cc(C2=N[C@@H](COC(=O)[C@@H](N)CCSC)CO2)ccc1O` [(S)-1-[(R)-2-(4-Hydroxy-3-methoxy-phenyl)-4,5-dihydro-oxazol-4-ylmethoxycarbonyl]-3-methylsulfanyl-propyl-ammonium] showed a pIC50 of 4.41.
`CCC(C)[C@H](N)C(=O)OC[C@@H]1COC(c2ccc(O)c(OC)c2)=N1` (stereo partly drawn) [(S)-1-[(S)-2-(4-Hydroxy-3-methoxy-phenyl)-4,5-dihydro-oxazol-4-ylmethoxycarbonyl]-2-methyl-butyl-ammonium] showed a negative-log IC50 (pIC50) in assay [1] of 4.41.
Turning to `COc1cc(C2=N[C@H](COC(=O)[C@@H](N)CCSC)CO2)ccc1O` [(S)-1-[(S)-2-(4-Hydroxy-3-methoxy-phenyl)-4,5-dihydro-oxazol-4-ylmethoxycarbonyl]-3-methylsulfanyl-propyl-ammonium], in assay [2], the negative logarithm of the IC50 (pIC50) was 4.47.
In assay [1], `CCC(C)[C@H](N)C(=O)OCCNC(=O)Cc1ccc(OC)c(O)c1` (stereo partly drawn) [(S)-1-{2-[2-(3-Hydroxy-4-methoxy-phenyl)-acetylamino]-ethoxycarbonyl}-2-methyl-butyl-ammonium] gave a pIC50 of 4.25.
On to `COc1ccc(CC(=O)NCCOC(=O)[C@@H](N)CCSC)cc1O` [(S)-1-{2-[2-(3-Hydroxy-4-methoxy-phenyl)-acetylamino]-ethoxycarbonyl}-3-methylsulfanyl-propyl-ammonium], for which the pIC50 in assay [2] is 3.79.
`CCC(C)[C@H](N)C(=O)OCCNC(=O)Cc1ccc(O)c(OC)c1` (stereo partly drawn) [(S)-1-{2-[2-(4-Hydroxy-3-methoxy-phenyl)-acetylamino]-ethoxycarbonyl}-2-methyl-butyl-ammonium] had a pIC50 in assay [1] of 4.35.
The compound `COc1cc(CC(=O)NCCOC(=O)[C@@H](N)CCSC)ccc1O` [(S)-1-{2-[2-(4-Hydroxy-3-methoxy-phenyl)-acetylamino]-ethoxycarbonyl}-3-methylsulfanyl-propyl-ammonium] showed a pIC50 in assay [2] of 4.03.
Regarding `CCC(C)[C@H](N)C(=O)OCCN(O)C(=O)c1ccc(OC)c(O)c1` (stereo partly drawn) [(S)-1-{2-[Hydroxy-(3-hydroxy-4-methoxy-benzoyl)-amino]-ethoxycarbonyl}-2-methyl-butyl-ammonium], in assay [1], the pIC50 was 5.35.
For the compound `COc1ccc(C(=O)N(O)CCOC(=O)[C@@H](N)CCSC)cc1O` [(S)-1-{2-[Hydroxy-(3-hydroxy-4-methoxy-benzoyl)-amino]-ethoxycarbonyl}-3-methylsulfanyl-propyl-ammonium], the pIC50 in assay [2] was 4.14.
Turning to `CCC(C)[C@H](N)C(=O)OCCN(O)C(=O)c1ccc(O)c(OC)c1` (stereo partly drawn) [(S)-1-{2-[Hydroxy-(4-hydroxy-3-methoxy-benzoyl)-amino]-ethoxycarbonyl}-2-methyl-butyl-ammonium], the pIC50 in assay [1] was 4.89.
`COc1cc(C(=O)N(O)CCOC(=O)[C@@H](N)CCSC)ccc1O` [(S)-1-{2-[Hydroxy-(4-hydroxy-3-methoxy-benzoyl)-amino]-ethoxycarbonyl}-3-methylsulfanyl-propyl-ammonium]: in assay [2], the negative logarithm of the IC50 (pIC50) was 4.49.
